Results from patent US12415819B2, “Cu- and Ni-catalyzed decarboxylative borylation reactions” (The Scripps Research Institute, priority 2017, dated 2025).
Where two headings read alike, the source gives them in different places.

Key:
[1] = target: human neutrophil elastase (Homo sapiens (Human), UniProt P08246); assay: Elastase inhibition assay, purified human neutrophil elastase; format: biochemical; conditions: for LipE: Purified NHE; for IC50: purified HNE, read-out: IC50
Protocol: Serially diluted compounds in DMSO were dispensed into a 384-well black opaque plate by Echo dispenser. 0.1 μg/mL human neutrophil elastase (EPC, Catalog# SE563, Owensville, Ms.) or human sputum diluted with assay buffer (100 mM HEPES, 500 mM NaCl, 0.02% Tween 20) was added into the 384-well plate, and was incubated with different compounds at different concentrations for 30 minutes at room temperature. The final concentration of DMSO in the reaction was 0.1%. […] Slope of fluorescence intensity vs. time representing the Vmax of enzyme activity was calculated with MARS software. % relative inhibition was calculated as: […]
IC50 was calculated based on the % relative inhibition curve using log(agonist) vs. response (three parameters) method with Prism software. All experiments were performed in triplicate for at least three independent times.

in vitro [2] = conditions: mouse, pH 7.4; for Extraction ratio / Microsomal stability (Mouse ER) / Remaining (*NCF = 60min) / Remaining (T = 60 min): 1 μM; for Microsomal stability (Mouse ER) / Remaining (*NCF = 60min) / Remaining (T = 60 min) / CLint scaled at 1 μM / half-life at 1 μM / microsomal CLint at 1 μM: microsomes; for Remaining (*NCF = 60min) / Remaining (T = 60 min): 1 h
Protocol: 100 mM potassium phosphate buffer, pH 7.4. • 2. 10 mM MgCl2 • 3) Compound Dilution:
Intermediate solution was prepared by diluting 5 μL of compound or control stock solution (10 mM in DMSO) with DMSO (45 μL) and 1:1 Methanol/Water (450 μL) (concentration=100 μM, 45% MeOH). Working solution was prepared by diluting 50 μL of the intermediate solution with 450 μL of 100 mM potassium phosphate buffer, pH=7.4 (centration=10 μM, 4.5% MeOH). • 4) NADPH regenerating system (final Isocitric dehydrogenase concentration=1 unit/mL at incubation) comprised:
10 μL/well of compound working solution or control working solution was added to all plates (T0, T5, T10, T20, T30, T60, NCF60) except the matrix blank. 80 μL/well of microsome solution was added to every plate. The mixtures of microsome solution and compound were incubated at 37° C. for about 10 min. 10 μL/well of NADPH regenerating system (pre-warmed to 37° C.) was then added to every plate to start the reaction. […] For NCF60 (abbreviation of no co-factor) no NADPH regenerating system was added, but was replaced by 10 μL/well of potassium phosphate buffer (100 mM, pH 7.4); the resulting mixture was incubated at 37° C. for 1 h.
The reactions were then terminated with the stop solution (cold at 4° C.) containing 100 ng/mL Tolbutamide and 100 ng/mL Labetalol ([…]). The sampling plates were shaken for approximately 10 minutes, then were centrifuged at 4000 rpm for 20 min at 4° C. While centrifuging, 8 new 96 well plates were loaded with […] of HPLC grade water. 100 μL of supernatant was finally added to 300 μL of HPLC grade water and mixed for LC/MS/MS analysis.
The equation of first order kinetics was used to calculate T1/2 and CIint(mic): […]

in vitro [3] = conditions: human
Protocol: Digoxin, fenoterol, and propranol were used as standards respectively. Transport Method:
The transport buffer used in the study was HBSS with 10 mM HEPES at pH 7.40±0.05. Compounds were tested at 2 μM bi-directionally in duplicates. Digoxin was tested at […] bi-directionally in a duplicate, while fenoterol and propranolol were tested at 2 μM in A(apical) to B (basolateral) direction in duplicates. The final DMSO concentration was adjusted to less than 1%. The plate was incubated for 2 hours in a CO2 incubator at 37±1° C., with 5% CO2 at saturated humidity without shaking. All samples, after mixing with acetonitrile containing internal standard, were centrifuged at 4000 rpm for 20 min. Subsequently,100 μL supernatant solution was diluted with 100 μL distilled water for LC/MS/MS analysis. Concentrations of test and control compounds in starting solution, donor solution, and receiver solution were quantified by LC/MS/MS methodologies, using peak area ratio of analyte/internal standard. After transport assay, lucifer yellow rejection assay was applied to determine the Caco-2 cell monolayer integrity.
Data analysis: The apparent permeability coefficient Papp (cm/s) was calculated using the equation:
The efflux ratio was calculated using the equation: Efflux ratio=Papp(BA)/Papp(AB)
Percent recovery was calculated using the equation: % Recovery=100×[(Vr·Cr)+(Vd·Cd)]/(Vd·C0) Where Vd is the volume in the donor chambers (0.075 mL on the apical side, 0.25 mL on the basolateral side); Cd and Cr are the final concentrations of transport compound in donor and receiver chambers, respectively.

Sequence of human neutrophil elastase (P08246 30-247): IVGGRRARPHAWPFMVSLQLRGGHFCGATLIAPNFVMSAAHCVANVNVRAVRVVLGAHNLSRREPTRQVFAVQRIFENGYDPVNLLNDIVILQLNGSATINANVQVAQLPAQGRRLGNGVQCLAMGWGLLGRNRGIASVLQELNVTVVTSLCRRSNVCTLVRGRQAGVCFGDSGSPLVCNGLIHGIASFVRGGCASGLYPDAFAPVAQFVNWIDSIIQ

| SMILES | inhibitory activity against HNE (in words) [1] | LipE [1] | inhibitory activity against HNE (in words) ([1]; listed as mCBK 320) | IC50 [1] [nM] | Extraction ratio (in vitro [2]) | Microsomal stability (Mouse ER) (in vitro [2]) | Remaining (*NCF = 60min) (in vitro [2]) [%] | Remaining (T = 60 min) (in vitro [2]) [%] | CLint scaled at 1 μM (in vitro [2]) [mL/min/kg] | half-life at 1 μM (in vitro [2]) [h] | microsomal CLint at 1 μM (in vitro [2]) [µL/min/mg] | Papp A→B at 120 min, 2 μM (in vitro [3]; Caco-2, pH 7.4) [×10⁻⁶ cm/s] | Papp A→B at 2 h, 2 μM (in vitro [3]; Caco-2, pH 7.4) [×10⁻⁶ cm/s] | Papp B→A at 120 min, 2 μM (in vitro [3]; Caco-2, pH 7.4) [×10⁻⁶ cm/s] | Papp B→A at 2 h, 2 μM (in vitro [3]; Caco-2, pH 7.4) [×10⁻⁶ cm/s] | efflux ratio at 2 h, 2 μM (in vitro [3]; Caco-2, pH 7.4) | recovery at 2 h, 2 μM (in vitro [3]; Caco-2, pH 7.4, Mean Recovery % A to B) [%] | recovery at 2 h, 2 μM (in vitro [3]; Caco-2, pH 7.4, Mean Recovery % B to A) [%] |
| --- | --- | --- | --- | --- | --- | --- | --- | --- | --- | --- | --- | --- | --- | --- | --- | --- | --- | --- |
| CC(C)[C@H](NC(=O)[C@@H]1CCCN1C(=O)[C@@H](NC(=O)c1ccc(C(=O)NS(=O)(=O)c2ccc(Cl)cc2)cc1)C(C)C)B(O)O [Compound 51, (1-((S)-1-((4-(((4-chlorophenyl)sulfonyl)carbamoyl)benzoyl)-L-valyl)pyrrolidine-2-carboxamido)-2-methylpropyl)boronic acid] | substantially enhanced potency | 7.33 | highly potent | 0.03 | <0.3 | <0.3 | 95.0 | 85.8 | < 38 | > 2.42 | < 9.6 | < 0.16 | < 0.08 | 0.61 | < 0.12 | > 3.91 | < 88.2 | 99.1 |
| CC(C)[C@H](NC(=O)[C@@H]1CCCN1C(=O)[C@@H](NC(=O)c1ccc(C(=O)NCC(=O)O)cc1)C(C)C)B(O)O [Compound 52, (4-(((2S)-1-((2S)-2-((1-borono-2-methylpropyl)carbamoyl)pyrrolidin-1-yl)-3-methyl-1-oxobutan-2-yl)carbamoyl)benzoyl)glycine] | – | 10.1 | – | 0.015 | <0.3 | <0.3 | 103.6 | 78.9 | < 38 | > 2.42 | < 9.6 | – | – | – | – | – | – | – |
